≈ marks a conversion by molar mass, not a printed value. Read-outs that look alike come from different tables or passages of the source.
Assays:
[1] = tested on: Streptococcus pneumoniae 1/1; test: MIC against Streptococcus pneumoniae 1/1; assay type: cell-based
[2] = target: T1, purified DHFR of strain Sp1/1 of Streptococcus pneumoniae (Streptococcus pneumoniae serotype 4, UniProt Q54801); assay type: biochemical; conditions: Table 2; IC50 against purified DHFR of strain Sp1/1
T1 sequence (Q54801 1-168 I100L): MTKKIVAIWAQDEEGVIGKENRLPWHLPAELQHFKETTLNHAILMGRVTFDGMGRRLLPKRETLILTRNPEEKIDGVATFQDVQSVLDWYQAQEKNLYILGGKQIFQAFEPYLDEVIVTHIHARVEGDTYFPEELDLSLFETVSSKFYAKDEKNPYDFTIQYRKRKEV

[3] = tested on: Staphylococcus aureus 101; test: MIC against Staphylococcus aureus 101; assay type: cell-based; conditions: Table 2, Staphylococcus aureus 101, MRSA- and trimethoprim-resistant, clinical isolate; for MIC: read-out: MIC Sa101
[4] = target: purified DHFR of strain 157/4696 of Staphylococcus aureus (Staphylococcus aureus, UniProt P13955); test: biochemical
[5] = Table 2, Streptococcus pneumoniae 1/1, trimethoprim- and penicillin-resistant, serotype 6, clinical isolate, read-out: MIC Sp1/1

purified DHFR of strain 157/4696 of Staphylococcus aureus, sequence (P13955 whole entry): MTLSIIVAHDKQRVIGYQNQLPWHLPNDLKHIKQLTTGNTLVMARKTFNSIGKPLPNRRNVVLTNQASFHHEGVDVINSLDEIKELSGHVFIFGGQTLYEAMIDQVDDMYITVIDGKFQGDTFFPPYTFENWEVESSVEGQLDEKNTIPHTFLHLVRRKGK

| Compound | MIC [1, 5] [mg/L] | IC50 [2] [µM] | MIC [3] [mg/L] | IC50 [4] [µM] | MIC Sp1/1 ([1]; Table 2, Streptococcus pneumoniae 1/1, trimethoprim- and penicillin-resistant, serotype 6, clinical isolate) [mg/L] | MIC Sa101 [3] [mg/L] | IC50 ([4]; Table 2, IC50 against purified DHFR of strain 157/4696 (highly trimethoprim-resistant; clinical isolate), read-out: DHFR Sa1) [µM] | MIC ([1]; Streptococcus pneumoniae, 1/1, read-out: MIC Sp1/1) [mg/L] |
| --- | --- | --- | --- | --- | --- | --- | --- | --- |
| CCOc1cc(Cc2cnc(N)nc2N)cc(OCC)c1-c1ccc(NC(C)=O)c(C)c1 [Example 04-e, N-[4′-(2,4-Diamino-pyrimidin-5-ylmethyl)-2′,6′-diethoxy-3-methyl-biphenyl-4yl]-acetamide] | 4 (≈ 9.18 µM) | 0.03 | 8 (≈ 18.4 µM) | 1.8 | – | – | – | – |
| CCOc1cc(Cc2cnc(N)nc2N)cc(OCC)c1-c1ccc(N)c(C)c1 [Example 04-f, 5-(4′-Amino-2,6-diethoxy-3′-methyl-biphenyl-4ylmethyl)-pyximidine-2,4-diamine] | 2 (≈ 5.08 µM) | 0.055 | 4 (≈ 10.2 µM) | 1.5 | – | – | – | – |
| CCOc1cc(Cc2cnc(N)nc2N)cc(OCC)c1-c1ccc(NC(=O)CN2CCOCC2)cc1 [Example 04-g, N-[4′-(2,4-Diamino-pyrimidin-5-ylmethyl)-2′,6′-diethoxy-biphenyl-4-yl]-2-morpholin-4-yl-acetamide] | 4 (≈ 7.9 µM) | 0.04 | 8 (≈ 15.8 µM) | 1.1 | – | – | – | – |
| CCOc1cc(Cc2cnc(N)nc2N)cc(OCC)c1-c1ccc(N)c(C#N)c1 [Example 04-h, 4-Amino-4′-(2,4-diamino-pyrimidin-5-ylmethyl)-2′,6′diethoxy-biphenyl-3-carbonitrile] | 2 (≈ 4.94 µM) | 0.042 | 4 (≈ 9.89 µM) | 1 | – | – | – | – |
| CCOc1cc(Cc2cnc(N)nc2N)cc(OCC)c1-c1ccc(OC)c(N)c1 [Example 04-i, 5-(3′-Amino-2,6-diethoxy-4′-methoxy-biphenyl-4-ylmethyl)-pyrimidine-2,4-diamine] | 4 (≈ 9.77 µM) | 0.043 | 8 (≈ 19.5 µM) | 1.2 | – | – | – | – |
| CCOc1cc(Cc2cnc(N)nc2N)cc(OCC)c1-c1ccc(CN2CCOCC2)c(N)c1 [Example 04-j, 5-(3′-Amino-2,6-diethoxy-4′-morpholino-4-ylmethy-biphenyl)-pyrimidine-2,4-diamine] | – | 0.048 | – | – | 4 (≈ 8.36 µM) | 8 (≈ 16.7 µM) | 0.85 | – |
| CCOc1cc(Cc2cnc(N)nc2N)cc(OCC)c1-c1cnc(N2CCOCC2)nc1 [Example 04-k, 5-[3,5-Diethoxy-4-(2-morpholin-4-yl-pyrimidin-5-yl)-benzyl]-pyrimidine-2,4-diamine] | 4 (≈ 8.86 µM) | 0.095 | 8 (≈ 17.7 µM) | 10 | – | – | – | – |
| CCOc1cc(Cc2cnc(N)nc2N)cc(OCC)c1-c1ccc(N)c(OC)c1 [Example 04-l, 5-(4′-Amino-2,6-diethoxy-3′-methoxy-biphenyl-4-ylmethyl)-pyrimidine-2,4-diamine] | 4 (≈ 9.77 µM) | 0.082 | 8 (≈ 19.5 µM) | 1.9 | – | – | – | – |
| CCOc1cc(Cc2cnc(N)nc2N)cc(OCC)c1-c1ccc2ncccc2c1 [Example 04-m, 5-(3,5-Diethoxy-4-quinolin-6-yl-benzyl)-pyrimidine-2,4-diamine] | 8 (≈ 19.3 µM) | 0.072 | 8 (≈ 19.3 µM) | 1.8 | – | – | – | – |
| CCOc1cc(Cc2cnc(N)nc2N)cc(OCC)c1-c1ccc(F)c(N)c1 [Example 04-n, 5-(3′-Amino-2,6-diethozy-4′-fluoro-biphenyl-4-ylmethyl)-pyrimidine-2,4-diamine] | 2 (≈ 5.03 µM) | 0.068 | 8 (≈ 20.1 µM) | 1.4 | – | – | – | – |
| CCOc1cc(Cc2cnc(N)nc2N)cc(OCC)c1-c1ccc(S(N)(=O)=O)cc1 [Example 04-o, 4′-(2,4-Diamino-gyrimidin-5-ylmethyl)-2′,6′-diethoxy-biphenyl-4-sulphonic acid amide] | 8 (≈ 18 µM) | 0.06 | 8 (≈ 18 µM) | 1.3 | – | – | – | – |
| CCOc1cc(Cc2cnc(N)nc2N)cc(OCC)c1-c1ccc(N)nc1 [Example 04-q, 5-[4-(6-Amino-pyridin-3-yl)-3,5-diethoxy-benzyl]-pyrimidine-2,4-diamine] | 4 (≈ 10.5 µM) | 0.069 | 8 (≈ 21 µM) | 1.9 | – | – | – | – |
| CCOc1cc(Cc2cnc(N)nc2N)cc(OCC)c1-c1ccc(N)c(F)c1 [Example 04-r, 5-(4′-Amino-2,6-diethoxy-3′-fluoro-biphenyl-4-3dmethyl)-Ryrimidine-2,4-diamine] | 4 (≈ 10.1 µM) | 0.085 | 8 (≈ 20.1 µM) | 3.2 | – | – | – | – |
| CCOc1cc(Cc2cnc(N)nc2N)cc(OCC)c1-c1cc(N)cc(F)c1 [Example 04-t, 5-(5′-Amino-2,6-diethoxy-3′-fluoro-biphenyl-4-ylmethyl)-pyrimidine-2,4-diamine] | 2 (≈ 5.03 µM) | 0.031 | 8 (≈ 20.1 µM) | 1.2 | – | – | – | – |
| CCOc1cc(Cc2cnc(N)nc2N)cc(OCC)c1-c1cccc(C=O)c1 [Example 04-u, 4′-(2,4-Diamino-pyrimidin-5-ylmethyl)-2′,6′-diethoxy-biphenyl-3-carbaldehyde] | 4 (≈ 10.2 µM) | 0.065 | 8 (≈ 20.4 µM) | 1.9 | – | – | – | – |
| CCOc1cc(Cc2cnc(N)nc2N)cc(OCC)c1-c1ccc(CNCC(F)(F)F)cc1 [Example 04-v, 5-[2,6-Diethoxy-4′-[(2,2,2-trifluoroethylamino)-methyl]-biphenyl-4-ylmethyl]-pyrimidine-2,4-diamine] | 4 (≈ 8.41 µM) | 0.15 | 8 (≈ 16.8 µM) | 1.3 | – | – | – | – |
| CCOc1cc(Cc2cnc(N)nc2N)cc(OCC)c1-c1ccc(CN2CCC(=O)N2)cc1 [Example 04-w, 1-[4′-(2,4-Diamino-pyrimidin-5-lmethyl)-2′,6′-diethoxy-biphenyl-4-ylmethyl]-pyrazolidin-3-one] | 8 (≈ 17.3 µM) | 0.082 | 8 (≈ 17.3 µM) | 1.2 | – | – | – | – |
| CCOc1cc(Cc2cnc(N)nc2N)cc(OCC)c1-c1cnc(CN2CCOCC2)nc1 [Example 04-x, 5-[3,5-Diethoxy-4-(2-morpholin-4-ylmethyl-pyrimidin-5-yl)-benzyl]-pyrimidine-2,4-diamine] | 8 (≈ 17.2 µM) | 0.08 | 8 (≈ 17.2 µM) | 7.9 | – | – | – | – |
| CCOc1cc(Cc2cnc(N)nc2N)cc(OCC)c1-c1ccc(CN2CCCC2)cc1 [Example 04-y, 5-(2,6-Diethoxy-4′-pyrrolidin-1-ylmethyl-biphenyl-4-ylmethyl)-pyrimidine-2,4-diamine] | 8 (≈ 17.9 µM) | 0.092 | 8 (≈ 17.9 µM) | 0.89 | – | – | – | – |
| CCOc1cc(Cc2cnc(N)nc2N)cc(OCC)c1-c1ccc(CN2CCOCC2)c(F)c1 [Example 04-z] | 4 (≈ 8.31 µM) | 0.058 | 8 (≈ 16.6 µM) | 3.8 | – | – | – | – |
| CCOc1cc(Cc2cnc(N)nc2N)cc(OCC)c1-c1cccc(OC)c1 [Example 05-a, 5-(2,6-Diethoxy-3′-methoxy-biphenyl-4-ylmethyl)-pyrimidine-2,4-diamine] | 2 (≈ 5.07 µM) | 0.046 | 8 (≈ 20.3 µM) | 6.1 | – | – | – | – |
| CCOc1cc(Cc2cnc(N)nc2N)cc(OCC)c1-c1ccc(OC)cc1 [Example 05-b, 5-(2,6-Diethoxy-4′-methoxy-biphenyl-4-ylmethyl)-pyrimidine-2,4-diamine] | 4 (≈ 10.1 µM) | 0.04 | 16 (≈ 40.6 µM) | 1.5 | – | – | – | – |
| CCOc1cc(Cc2cnc(N)nc2N)cc(OCC)c1-c1cccc(NC(C)=O)c1 [Example 05-c, N-[4′-(2,4-Diamino-pyrimidin-5-ylmethyl)-2′,6′-diethoxy-biphenyl-3-yl]-acetamide] | 4 (≈ 9.49 µM) | 0.03 | 8 (≈ 19 µM) | 2.6 | – | – | – | – |
| CCOc1cc(Cc2cnc(N)nc2N)cc(OCC)c1-c1cccc(O)c1 [Example 05-d, 4′-(2,4-Diamino-pyrimidin-5-ylmethyl)-2′,6′-diethoxy-biphenyl-3-ol] | 2 (≈ 5.26 µM) | 0.07 | 4 (≈ 10.5 µM) | 3.1 | – | – | – | – |
| CCOc1cc(Cc2cnc(N)nc2N)cc(OCC2(CC#N)CC2)c1-c1cccc(N)c1 [Example 07-b, {1-[3′-Amino-4-(2,4-diamino-pyrimidin-5-ylmethyl)-6-ethoxy-biphenyl-2-yloxymethyl]-cydopropyl}-acetonitrile] | 2 (≈ 4.5 µM) | 0.036 | 8 (≈ 18 µM) | 0.95 | – | – | – | – |
| CCOc1cc(Cc2cnc(N)nc2N)cc(OCC2(COC)CC2)c1-c1cccc(N)c1 [Example 07-c, 5-[3′-Amino-6-ethoxg-2-[(1-methoxymethyl-cyclopropyl)-methoxy]-biphenyl-4-yimethyl]-pyrimidine-2,4-diamine] | 4 (≈ 8.9 µM) | 0.048 | 8 (≈ 17.8 µM) | 2.2 | – | – | – | – |
| CCOc1cc(Cc2cnc(N)nc2N)cc(OC2CCCC2)c1-c1cccc(N)c1 [Example 07-d, 5-(3′-Amino-6-cycloventloxy-2-ethoxy-biphenyl-4-ylmethyl)-pyrimidine-2,4-diamine] | 1 (≈ 2.38 µM) | 0.0082 | 4 (≈ 9.53 µM) | 0.68 | – | – | – | – |
| CCOc1cc(Cc2cnc(N)nc2N)cc(OC2CCC2)c1-c1cccc(N)c1 [Example 07-e, 5-(3′-Amino-6-qdobutoxy-2-ethoxy-biphenyl-4-ylmethyl)-pyrimidine-2,4-diamine] | 1 (≈ 2.47 µM) | 0.028 | 4 (≈ 9.86 µM) | 0.64 | – | – | – | – |
| CCOc1cc(Cc2cnc(N)nc2N)cc(OCC(C)(C)C=CC#N)c1-c1cccc(N)c1 [Example 07-f, (E)-5-[3′-Amino-4-(2,4-diamino-pyrimidin-5-ylmeth)-6-ethoxy-biphenyl-2-yloxy]-4,4-dimethyl-pent-2-ene-nitrile] | – | 0.055 | 8 (≈ 17.4 µM) | 0.75 | – | – | – | 2 (≈ 4.36 µM) |
